According to patent US12252524B2, “GIP/GLP1 co-agonist compounds” (Eli Lilly and Company, priority 2018, dated 2025):
Like-named read-outs stand apart in the source and are kept apart here. Numbered stars: 1 amine (or outer) side, 2 acyl side, 3 side chain; on linkers, the order of the positions; unused ones are H or OH. Square brackets hold non-standard residues; d marks the D form. Side chains are listed from the residue outwards. Peptide text beside a SMILES is read from it. * marks the point of attachment. C20 diacid = O=C(O)CCCCCCCCCCCCCCCCCCC(=O)*; γGlu = O=C(O)[C@H](CCC(=O)[*:2])N[*:1]; AEEA = NCCOCCOCC(=O)O; Aib = CC(C)(N)C(=O)O

Experiments:
human Gcg receptor = target: T1, human Gcg receptor (Homo sapiens, UniProt P47871); test: [125I]-Glucagon binding (SPA), human Gcg receptor
T1 construct: expressed in transfected cells; crude membranes
T1 sequence (P47871 26-477): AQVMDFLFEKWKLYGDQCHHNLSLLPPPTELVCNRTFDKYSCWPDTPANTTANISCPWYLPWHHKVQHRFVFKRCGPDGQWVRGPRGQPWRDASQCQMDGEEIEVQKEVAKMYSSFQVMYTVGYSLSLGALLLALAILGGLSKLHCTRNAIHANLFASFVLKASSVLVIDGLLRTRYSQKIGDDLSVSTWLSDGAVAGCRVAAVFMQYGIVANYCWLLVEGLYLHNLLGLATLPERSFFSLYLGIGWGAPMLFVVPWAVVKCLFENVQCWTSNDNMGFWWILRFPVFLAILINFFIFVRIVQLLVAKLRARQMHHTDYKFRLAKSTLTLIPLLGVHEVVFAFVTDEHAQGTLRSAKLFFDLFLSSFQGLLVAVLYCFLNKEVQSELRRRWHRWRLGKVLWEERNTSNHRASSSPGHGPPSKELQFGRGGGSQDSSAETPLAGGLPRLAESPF
Outline: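 Crude membranes from cells expressing the receptor, prepared by hypotonic lysis in 50 mM Tris HCl pH 7.5 with protease inhibitors, homogenization and differential centrifugation, were used in a WGA-bead SPA. Binding buffer: 25 mM HEPES pH 7.4, 2.5 mM CaCl2, 1 mM MgCl2, bacitracin, Tween-20.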

[1] = target: human GLP-1 receptor (GLP-1R) (Homo sapiens, UniProt P43220); test: cAMP pharmacological functional assay in presence of casein, hGLP-1R; format: cell-based
human GLP-1 receptor (GLP-1R), sequence (P43220 24-463): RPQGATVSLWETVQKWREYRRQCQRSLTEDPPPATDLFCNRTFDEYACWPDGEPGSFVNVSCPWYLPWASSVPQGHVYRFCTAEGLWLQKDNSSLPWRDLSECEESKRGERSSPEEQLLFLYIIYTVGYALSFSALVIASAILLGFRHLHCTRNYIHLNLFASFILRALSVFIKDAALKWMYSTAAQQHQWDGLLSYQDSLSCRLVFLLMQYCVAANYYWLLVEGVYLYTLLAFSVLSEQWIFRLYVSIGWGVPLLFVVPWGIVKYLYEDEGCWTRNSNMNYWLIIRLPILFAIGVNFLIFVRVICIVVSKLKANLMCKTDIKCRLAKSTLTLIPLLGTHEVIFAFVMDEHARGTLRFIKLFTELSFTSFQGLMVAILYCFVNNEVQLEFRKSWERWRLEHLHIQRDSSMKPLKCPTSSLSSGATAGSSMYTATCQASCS

[2] = Proteolytic stability assay in 1% rat small intestinal fluid (rSIF)
Description: The stability of peptides are compared in 1% rat small intestinal fluid (rSIF). The amount of intact peptide is measured for a sample peptide at 0, 3, 15, and 30 minutes to assess proteolytic stability. The amount of intact peptide for a sample peptide is measured in 90% pig small intestinal fluid (pSIF) at 0, 30, 45, and 60 minutes to assess the proteolytic stability.
Peptides are prepared at 0.4 mg/mL in 50 mM Tris pH8.0. […] The mixture is incubated at 37° C. at 150 rpm. Thirty μL of each sample are removed and placed into a new tube before the rSIF is added and at […]. At each time point, the reaction was quenched by 1% TFA in 50% ACN at 1:1. The samples are diluted 100 times using dilution buffer (1:1 of 1% TFA in 50% ACN: 50 mM Tris pH8) and ready for analysis using mass spectrometry (MS).
The data analysis is performed using MassLynx.

[3] = test system: CD8+ T cell depleted peripheral blood mononuclear cells; test: CD4+ T cell assay for potential clinical immunogenicity
Description: (§1) The purpose of this study is to determine the relative potential for clinical immunogenicity of a compound.
(§2) CD8+ T cell depleted peripheral blood mononuclear cells are prepared and labeled with Carboxyfluorescein Diacetate Succinimidyl Ester (CFSE, Invitrogen) from a cohort of 10 healthy donors. […] Cultures are incubated for 7 days at 37° C. with 5% CO2. On day 7, samples are analyzed by flow cytometry using High Throughput Sampler (HTS). Data is analyzed using FlowJo® Software (FlowJo, LLC, TreeStar).

[4] = test system: CD8+ T cell depleted peripheral blood mononuclear cells
Description: as §1, §2

[5] = rat, real gastrointestinal fluid or homogenate, pH 8

SMILES	Ki (human Gcg receptor) [nM]	EC50 [1] [nM]	percentage of peptide not cleaved using rSIF ([2]; 0 min, 1% rSIF, 37° C.) [%]	remaining at 0.05 h, 0.4 mg/mL [2, 5] [%]	remaining at 0.25 h, 0.4 mg/mL [2, 5] [%]	remaining at 1 h, 0.4 mg/mL [2, 5] [%]	frequency of positive CD+ T cell response (CDI>2.5) ([3]; CD4+ T cell assay)	% Donor Response (CD4+ T cell response) ([3]; Examples 10 uM, KLH 0.33 μM, 7 days) [%]	Ki (human Gcg receptor; read-out: hGLcgR Ki, nM (SEM, n)) [nM]	EC50 ([1]; HEK293 cells expressing hGLP-1R, 0.1% Casein, geometric mean, read-out: hGLP1R cAMP Rel EC50 nM (SEM, n)) [nM]	frequency of positive CD+ T cell response (CDI>2.5) [4]
CC[C@H](C)[C@H](NC(=O)[C@H](CC(C)C)NC(=O)[C@](C)(Cc1ccc(O)cc1)NC(=O)[C@@H](CCC(=O)O)NC(=O)[C@@H](NC(=O)[C@H](Cc1ccccc1)NC(=O)[C@H](CCC(=O)O)NC(=O)C(C)(C)NC(=O)[C@H](CCC(N)=O)NC(=O)[C@H](C)NC(=O)[C@H](CCCCNC(=O)COCCOCCNC(=O)COCCOCCNC(=O)CC[C@H](NC(=O)CCCCCCCCCCCCCCCCC(=O)O)C(=O)O)NC(=O)[C@H](CCCN)NC(=O)[C@H](CC(=O)O)NC(=O)[C@H](CC(C)C)NC(=O)[C@](C)(CC(C)C)NC(=O)[C@@H](NC(=O)[C@H](CO)NC(=O)[C@H](Cc1ccncc1)NC(=O)[C@H](CC(=O)O)NC(=O)[C@H](CO)NC(=O)[C@@H](NC(=O)[C@](C)(Cc1ccccc1F)NC(=O)[C@@H](NC(=O)CNC(=O)[C@H](CCC(=O)O)NC(=O)C(C)(C)NC(=O)[C@@H](N)Cc1ccc(O)cc1)[C@@H](C)O)[C@@H](C)O)[C@@H](C)CC)[C@@H](C)CC)C(=O)N[C@@H](CCC(=O)O)C(=O)NCC(=O)NCC(=O)N1CCC[C@H]1C(=O)N[C@@H](CO)C(=O)N[C@@H](CO)C(=O)NCC(=O)N[C@@H](C)C(=O)N1CCC[C@H]1C(=O)N1CCC[C@H]1C(=O)N1CCC[C@H]1C(=O)N[C@@H](CO)C(N)=O [Example 4]	686	0.0297	100	97.9	99.3	89.4	low	0	–	–	–
CC[C@H](C)[C@H](NC(=O)[C@H](CC(C)C)NC(=O)[C@H](Cc1ccc(O)cc1)NC(=O)[C@H](CCC(=O)O)NC(=O)[C@@H](NC(=O)[C@H](Cc1ccccc1)NC(=O)[C@H](C)NC(=O)C(C)(C)NC(=O)[C@H](CCC(N)=O)NC(=O)[C@H](C)NC(=O)[C@H](CCCCNC(=O)COCCOCCNC(=O)COCCOCCNC(=O)CC[C@H](NC(=O)CCCCCCCCCCCCCCCCCCC(=O)O)C(=O)O)NC(=O)[C@H](CCCCN)NC(=O)[C@H](CC(=O)O)NC(=O)[C@H](CC(C)C)NC(=O)[C@H](CC(C)C)NC(=O)[C@@H](NC(=O)[C@H](CO)NC(=O)[C@H](Cc1ccc(O)cc1)NC(=O)[C@H](CC(=O)O)NC(=O)[C@H](CO)NC(=O)[C@@H](NC(=O)[C@H](Cc1ccccc1)NC(=O)[C@@H](NC(=O)CNC(=O)[C@H](CCC(=O)O)NC(=O)C(C)(C)NC(=O)[C@@H](N)Cc1ccc(O)cc1)[C@@H](C)O)[C@@H](C)O)[C@@H](C)CC)[C@@H](C)CC)C(=O)N[C@@H](C)C(=O)NCC(=O)NCC(=O)N1CCC[C@H]1C(=O)N[C@@H](CO)C(=O)N[C@@H](CO)C(=O)NCC(=O)N[C@@H](C)C(=O)N1CCC[C@H]1C(=O)N1CCC[C@H]1C(=O)N1CCC[C@H]1C(=O)N[C@@H](CO)C(N)=O [Example 288] (H-Y[Aib]EGTFTSDYSILLDKK([AEEA-AEEA-γGlu-C20 diacid])AQ[Aib]AFIEYLIAGGPSSGAPPPS-NH2; N-terminus assumed)	–	–	–	–	–	–	–	–	345	0.172	low
